Data from US4916220A, “Palmitoyl-fructose-1,6-diphosphate, its therapeutic use and relevant preparation methods” (Biomedica Foscama Industria Chimico-Farmaceutica, priority 1988, dated 1990).
Read-outs that look alike come from different tables or passages of the source.

What was measured:
[1] = tested on: small slices of rat heart; assay: Attack of ^14C-FDP and ^14C-DPF to small slices of rat heart; assay type: cell-based; details: for Attack to small slices of rat heart: 5 mM, 40 min incubation at 25° C., 3 tests average
Description: Small slices of rat heart were used to study comparatively the attack of ^14 C-FDP and ^14 C-DPF, the latter obtained by palmitoylation of a mixture of "hot" and "cold" FDP.

[2] = tested on: entrance of ^45Ca in small slices of heart; assay: Effect on the entrance of ^45Ca in small slices of heart; assay type: cell-based; details: 3 min. at 25° C., 0.5 mM Ca; for effect on the entrance of ^45Ca: result in words
Procedure: The effect on the entrance of ^45 Ca in small slices of heart incubated for 3 min. at 25° C. with 0.5 mM Ca is inhibitory both with FDP and with DPF and therefore both seem to protect the tissue from the anoxy occurring with the entrance of Ca.

perfused rat heart = assay: Action on perfused rat heart (inotropic and chronotropic); assay type: cell-based; details: for EC50: biphasic inotropic and chronotropic effect, read-out: ED50 (perfused rat heart); for action on perfused heart (inotropic and chronotropic): result in words, final concentration
[3] = tested on: organs (heart, kidneys, liver); assay: Radioactivity accumulated in organs after administration per os to rats; assay type: in vivo, rat; details: 3,000,000 dpm total, 1 hour after administration
Procedure: The administration to rats of ^14 C-FDP and ^14 C-DPF per os (3,000,000 dpm total) allowed measurement of the radioactivity accumulated 1 hour after administration at the level of the organs and the results are reported in Table 2.

Molecule	Attack to small slices of rat heart [1] [nmoles/100 mg]	effect on the entrance of ^45Ca [2]	IC50 ([2]; 0.05 h) [µM]	EC50 (perfused rat heart; Rattus norvegicus) [µM]	action on perfused heart (inotropic and chronotropic) (perfused rat heart)	Accumulation of radioactivity, Heart [3]	Accumulation of radioactivity, Kidneys [3]	Accumulation of radioactivity, Liver [3]	membrane affinity higher than that of FDP ([1]; relative to FDP) [%]	IC50 [2] [µM]	EC50 (perfused rat heart) [µM]
O=C(COP(=O)(O)O)[C@@H](O)[C@H](O)[C@H](O)COP(=O)(O)O [FDP, fructose-1,6-diphosphate]	260 ± 20	inhibitory	8000	100	biphasic, i.e. inotropic and chronotropic, positive at concentrations lower than 1 mM (final) and negative for higher concentrations	508	395	624			
palmitoyl-fructose-1,6-diphosphate [DPF]	344 ± 16	inhibitory			biphasic effect but its effect appears at lower doses	1620	1324	1434	30	5500	40
